The values that follow come from ChEMBL document CHEMBL1129713, “Inhibitors of MMP-1: an examination of P1 C gem-disubstitution in the succinamide hydroxamate series” (Bioorg Med Chem Lett, 1996).

This experiment concerns the target T1, Interstitial collagenase (Homo sapiens, UniProt P03956).
T1 sequence (P03956 whole entry): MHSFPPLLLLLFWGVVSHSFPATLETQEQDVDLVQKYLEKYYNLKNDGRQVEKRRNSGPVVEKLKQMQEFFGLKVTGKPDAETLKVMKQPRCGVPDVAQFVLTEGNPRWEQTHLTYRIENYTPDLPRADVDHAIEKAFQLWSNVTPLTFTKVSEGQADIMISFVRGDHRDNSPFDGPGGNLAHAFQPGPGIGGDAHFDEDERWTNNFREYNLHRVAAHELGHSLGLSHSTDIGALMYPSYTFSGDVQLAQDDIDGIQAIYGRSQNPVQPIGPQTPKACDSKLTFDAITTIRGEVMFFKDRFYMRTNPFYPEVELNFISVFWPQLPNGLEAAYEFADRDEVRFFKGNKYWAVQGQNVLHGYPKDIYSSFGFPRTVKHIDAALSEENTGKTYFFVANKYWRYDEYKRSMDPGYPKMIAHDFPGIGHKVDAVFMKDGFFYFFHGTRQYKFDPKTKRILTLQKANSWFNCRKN
The experiment can be described thus: Inhibition of Matrix Metallo Proteinase-1 (MMP-1).

For the compound `CNC(=O)[C@H](Cc1ccc(OC)cc1)NC(=O)C1(CC(=O)NO)CCCCC1`, the IC50 (in general, the midpoint of a concentration-inhibition curve) amounted to 150 nM.

`CNC(=O)[C@H](Cc1ccc(OC)cc1)NC(=O)C(C)(CC(=O)NO)CC(C)C` (stereo partly specified) showed an IC50 of 460 nM.

Compound `CNC(=O)[C@H](Cc1ccc(OC)cc1)NC(=O)C1(CC(=O)NO)CCCC1` gave an IC50 of 2800 nM. Under `CNC(=O)[C@H](Cc1ccc(OC)cc1)NC(=O)[C@@]1(CC(=O)NO)CCc2ccccc21` stands over 30000 nM. `CNC(=O)[C@H](Cc1ccc(OC)cc1)NC(=O)C1(CC(=O)NO)Cc2ccccc2C1`: the IC50 was found to be 570 nM. For `CNC(=O)[C@H](Cc1ccc(OC)cc1)NC(=O)[C@]1(CC(=O)NO)CCc2ccccc21` the value was 17500 nM; for `CNC(=O)[C@H](Cc1ccc(OC)cc1)NC(=O)C(C)(CC(=O)NO)c1ccccc1` (stereo partly specified), 3800 nM. For `CNC(=O)[C@H](Cc1ccc(OC)cc1)NC(=O)C(CC(=O)NO)c1ccccc1` (stereo partly specified) the value was 40 nM; for `CNC(=O)[C@H](Cc1ccc(OC)cc1)NC(=O)C1(CC(=O)NO)CCCc2ccccc21` (stereo partly specified), 770 nM.

For the compound `CNC(=O)[C@H](Cc1ccc(OC)cc1)NC(=O)C1(CC(=O)NO)Cc2ccccc21` (stereo in doubt; form 1), inhibition was half-maximal at 2200 nM (IC50).

For the compound `CNC(=O)[C@H](Cc1ccc(OC)cc1)NC(=O)C1(CC(=O)NO)Cc2ccccc21` (stereo in doubt; form 2), inhibition was half-maximal at 800 nM (IC50).
